EC50 data for 40 molecules are collected here from US8088806B2 (Achillion Pharmaceuticals, Inc., priority 2005, dated 2012).

A value given as a limit tells only on which side of the number the result lay.

For one experiment, the system named is HCV replicon. The experiment is described as follows: Replicon based assay of HCV replication inhibition (NPT ELISA). The format is cell-based, Hepatitis C virus. As to conditions: Hepatitis C virus, Huh-7, 72 h, Table I; Huh-7 HCV replicon-containing cells, three days; read-out: Activity. The gist of the method: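 Huh-7 cells carrying a bicistronic HCV replicon (neo, EMCV-IRES-driven NS3–NS5B) treated overnight after seeding with usually 6 concentrations, 10 to 0.03 micromolar, for three days at 37° C without G418. Replication read as NPT level by captured ELISA; matched-DMSO wells and interferon alpha as controls.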
For orientation: Replicon systems follow genome replication, usually without infectious particles.
Consider `CCCCCOc1ccc(Nc2ncc(C(=O)Nc3cccnc3)s2)cc1C(F)(F)F` [compound 163, 2-(3-(trifluoromethyl)-4-(pentyloxy)phenylamino)-N-(pyridin-3-yl)thiazole-5-carboxamide], for which the EC50 is below 1000 nM.
Same read-out and setting: in the case of `CCCCCOc1ccc(Nc2nc(-c3ccccc3Cl)cs2)cc1F` [compound 177, 4-(2-chlorophenyl)-N-(3-fluoro-4-(pentyloxy)phenyl)thiazol-2-amine] it was below 1000 nM.
Take `CCCCCOc1ccc(NC(=O)c2csc(-c3cccnc3)n2)cc1C(F)(F)F` [compound 127, N-(3-(trifluoromethyl)-4-(pentyloxy)phenyl)-2-(pyridin-3-yl)thiazole-4-carboxamide]: the EC50 is above 10000 nM.
On to `CCCCCCCCOc1ccc(Nc2nc(-c3cccnc3)cs2)cc1` [compound 93, N-(4-(octyloxy)phenyl)-4-(pyridin-3-yl)thiazol-2-amine], for which the EC50 was below 1000 nM.
For the molecule `CCCCCOc1ccc(Nc2nc(-c3ccc(C(=O)O)cn3)cs2)cc1C(F)(F)F` [compound 213, 6-(2-(3-(trifluoromethyl)-4-(pentyloxy)phenylamino)thiazol-4-yl)pyridine-3-carboxylic acid], the EC50 was below 1000 nM.
For `FC(F)(F)Oc1ccc(Nc2nc(-c3ccc(Cl)c(Cl)c3)cs2)cc1` [compound 44, 4-(3,4-dichlorophenyl)-N-(4-(trifluoromethoxy)phenyl)thiazol-2-amine], the EC50 was above 10000 nM.
On the same count and under the same terms, the result for `CCCCCOc1ccc(Nc2nc(N)cs2)cc1C(F)(F)F` [compound 208, N2-(3-(trifluoromethyl)-4-(pentyloxy)phenyl)thiazole-2,4-diamine] reads 1000 to 10000 nM.
Still for that read-out and setting: in the case of `CCCCCOc1ccc(Nc2nc(-c3ccc(F)c(F)c3)cs2)cc1C(F)(F)F` [compound 133, N-(3-(trifluoromethyl)-4-(pentyloxy)phenyl)-4-(3,4-difluorophenyl)thiazol-2-amine] it was below 1000 nM; in that of `CCOC(=O)C1CCN(Cc2cccc(Nc3nc(-c4cccnc4)cs3)c2)CC1` [compound 108, ethyl 1-(3-(4-(pyridin-3-yl)thiazol-2-ylamino)benzyl)piperidine-4-carboxylate], above 10000 nM.
As to `CCCCCOc1ccc(N(C)c2nc(C(=O)Nc3cccnc3)cs2)cc1C(F)(F)F` [compound 162, 2-(N-(3-(trifluoromethyl)-4-(pentyloxy)phenyl)-N-methylamino)-N-(pyridin-3-yl)thiazole-4-carboxamide], the EC50 was above 10000 nM.

Still in this experiment, the particulars now being: Hepatitis C virus, Huh-7, 72 h, Table III; Huh-7 HCV replicon-containing cells, three days; read-out: Activity.
On to `CCCCCOc1ccc(Nc2nc(-c3cncc(C#N)c3)cs2)cc1C(F)(F)F` [compound 520, 5-(2-(3-(trifluoromethyl)-4-(pentyloxy)phenylamino)thiazol-4-yl)pyridine-3-carbonitrile], for which the EC50 was below 1000 nM.
Same read-out and setting: the result for `CCCCCCCCOc1ccc(Nc2nc(Cc3ccc(F)cc3)cs2)cc1C(F)(F)F` [compound 629, 4-(4-fluorobenzyl)-N-(3-(trifluoromethyl)-4-(octyloxy)phenyl)thiazol-2-amine] reads below 1000 nM; that for `FC(F)(F)c1cc(Nc2nc(-c3cccnc3)cs2)ccc1OCC1CCCCC1` [compound 658, N-(4-(cyclohexylmethoxy)-3-(trifluoromethyl)phenyl)-4-(pyridin-3-yl)thiazol-2-amine], below 1000 nM.
Same read-out and setting: the result for `CCCCCCCCOc1ccc(Nc2nc(-c3ccc4oc(CO)cc4c3)cs2)cc1C(F)(F)F` [compound 704, (5-(2-(3-(trifluoromethyl)-4-(octyloxy)phenylamino)thiazol-4-yl)benzofuran-2-yl)methanol] reads below 1000 nM; that for `CCCCCCCCOc1ccc(Nc2nc3c(s2)CCc2ccncc2-3)cc1` [compound 593, 4,5-dihydro-N-(4-(octyloxy)phenyl)thiazolo[5,4-h]isoquinolin-2-amine], below 1000 nM; that for `CCCCCCCCOc1ccc(Nc2nc(-c3cnc(Cl)nc3)cs2)cc1` [compound 619, 4-(2-chloropyrimidin-5-yl)-N-(4-(octyloxy)phenyl)thiazol-2-amine], below 1000 nM.
For the molecule `CCCCCCCCOc1ccc(Nc2nc(-c3cncc(OC)c3)cs2)cc1` [compound 657, 4-(5-methoxypyridin-3-yl)-N-(4-(octyloxy)phenyl)thiazol-2-amine], the EC50 lay in the range of 1000 to 10000 nM.
As for `CNc1ccc(-c2csc(Nc3ccc(OC4CCCC4)c(C(F)(F)F)c3)n2)cn1` [compound 537, 5-(2-(4-(cyclopentyloxy)-3-(trifluoromethyl)phenylamino)thiazol-4-yl)-N-methylpyndin-2-amine], the EC50 was below 1000 nM.

Still in this experiment, the particulars now being: Hepatitis C virus, replicon based assay of HCV replication inhibition; Table II; read-out: Activity.
Take `CCCCCCCCOc1ccc(Nc2nc(-c3cccnc3)cs2)cn1` [compound 469, 6-(octyloxy)-N-0(4-(pyridin-3-yl)thiazol-2-yl)pyridin-3-amine]: the EC50 was 1000 to 10000 nM.
`CCCCCOc1ccc(Nc2nc(-c3ccncc3)cs2)cc1C(F)(F)F` [compound 364, N-(4-(pentyloxy)-3-(trifluoromethyl)phenyl)-4-(pyridin-4-yl)thiazol-2-amine]: the EC50 was below 1000 nM.
With `CCCCCOc1ccc(Nc2nc(CN3CCCC(C(=O)O)C3)cs2)cc1C(F)(F)F` (stereo not shown) [compound 275, 1-((2-(4-(pentyloxy)-3-(trifluoromethyl)phenyl-amino)thiazol-4-yl)methyl)piperidin-3-carboxylic acid], the EC50 is below 1000 nM.
In the case of `CCCCCCCCOc1ccc(Nc2nc(CN3CCC(N(C)C)C3)cs2)cc1` (stereo not shown) [compound 317, 4-((3-(dimethylamino)pyrrolidin-1-yl)methyl)-N-(4-(octyloxy)phenyl)thiazol-2-amine], the EC50 was below 1000 nM.
Consider `CCCCCCCCOc1ccc(Nc2nc(-c3cccc(O)c3)cs2)cc1` [compound 436, 3-(2-(4-(octyloxy)phenylamino)thia-zol-4-yl)phenol], for which the EC50 is below 1000 nM.
For `CCCCCOc1ccc(Nc2nc(-c3ccccc3O)cs2)cc1C(F)(F)F` [compound 371, 2-(2-(4-(pentyloxy)-3-(trifluoromeethyl)phenyl-amino)thiazol-4-yl)phenol], the EC50 lay within 1000 to 10000 nM.
Take `CCCCCCCCOc1ccc(Nc2nc(-c3cn4cccnc4n3)cs2)cc1` [compound 307, 4-(imidazo[1,2-a]pyrimidin-2-yl)-N-(4-(octyloxy)phenyl)thiazol-2-amine]: the EC50 was below 1000 nM.
As to `CCCCCOc1ccc(Nc2nc(CN3CCN(C4CCCCCC4)CC3)cs2)cc1F` [compound 282, 4-((4-cycloheptylpiperazin-1-yl)methyl)-N-(3-fluoro-4-(pentyloxy)phenyl)thiazol-2-amine], the EC50 was below 1000 nM.
For the molecule `CCCCCOc1ccc(Nc2nc(-c3cn4cccnc4n3)cs2)cc1C(F)(F)F` [compound 263, 4-(imidazo[1,2-a]pyrimidin-2-yl)-N-(4-(pentyloxy)-3-(trifluoromethyl)phenyl)thia-zol-2-amine], the EC50 is below 1000 nM.
Regarding `CCCCCOc1ccc(Nc2nc(-c3cccc(O)c3)cs2)cc1C(F)(F)F` [compound 434, 3-(2-(3-(trifluoromethyl)-4-(pentyloxy)phenylmino)thia-zol-4-yl)phenol], the EC50 was 1000 to 10000 nM.
On to `CCCCCCCOc1ccc(Nc2nc(-c3ccncc3)cs2)cc1` [compound 365, N-(4-(heptyloxy)phenyl)-4-(pyridin-4-yl)thiazol-2-amine], for which the EC50 was below 1000 nM.
On to `CCCCCOc1ccc(Nc2nc([C@H]3CCCN(C)C3)cs2)cc1C(F)(F)F` [compound 235, (S)-4-(1-methylpiperidin-3-yl)-N-(4-(pentyloxy)-3-(trifluoromethyl)phenyl)thia-zol-2-amine], for which the EC50 is below 1000 nM.
The same measure, in the same setting: the result for `CCCCCOc1ccc(Nc2nc(CN3CCCC(C(=O)O)C3)cs2)cc1F` (stereo not shown) [compound 293, 1-((2-(3-fluoro-4-(pentyloxy)phenylamino)thia-zol-4-yl)methyl)piperidine-3-carboxylic acid] reads 1000 to 10000 nM.
Regarding `CCCCCCCCOc1ccc(Nc2nc(-c3ccc(C)nc3)cs2)cn1` [compound 473, N-(4-(6-methylpyridin-3-yl)thiazol-2-yl)-6-(octyloxy)pyridin-3-amine], the EC50 is below 1000 nM.

The experiment is the same for the next values; noted with them: Hepatitis C virus, replicon based assay of HCV replication inhibition; Table IV; read-out: Activity.
For the molecule `COc1ncc(-c2csc(Nc3ccc(CCCCCc4ccccc4)c(C(F)(F)F)c3)n2)cn1` [compound 939, N-(3-(trifluoromethyl)-4-(5-phenylpentyl)phenyl)-4-(2-methoxypyrimidin-5-yl)thiazol-2-amine], the EC50 is below 1000 nM.
For the molecule `CCN(CC)S(=O)(=O)c1cc(Nc2nc(-c3cccnc3)cs2)ccc1Cl` [compound 819], the EC50 is above 10000 nM.
As to `CCOC(=O)Cc1ccc(-c2csc(Nc3ccc(OCCCCc4ccccc4)c(C(F)(F)F)c3)n2)s1` [compound 928, ethyl 2-(5-(2-(4-(4-phenylbutoxy)-3-(trifluoromethyl)phenylamino)thiazol-4-yl)thiophen-2-yl)acetate], the EC50 lay within 1000 to 10000 nM.
Consider `CCOC(=O)Cc1csc(Nc2nc(-c3cccnc3)cs2)n1` [compound 790, ethyl 2-(2-(4-(pyridin-3-yl)thiazol-2-ylamino)thiazol-4-yl)acetate], for which the EC50 was above 10000 nM.
For `CCCCCCCCOc1ccc(Nc2nc(-c3cnc(Cl)c(C)c3)cs2)cc1C(F)(F)F` [compound 842, 4-(6-chloro-5-methylpyridin-3-yl)-N-(3-(trifluoromethyl)-4-(octyloxy)phenyl)thiazol-2-amine], the EC50 was below 1000 nM.
As to `Fc1ccc(Cn2ccc3ccc(Nc4nc(-c5cccnc5)cs4)cc32)cc1` [compound 867, 1-(4-fluorobenzyl)-N-(4-(pyridin-3-yl)thiazol-2-yl)-1H-indol-6-amine], the EC50 was below 1000 nM.
With `CCCCc1ccc(Nc2nc(-c3cccnc3)cs2)c(C)c1` [compound 900, N-(4-butyl-2-methylphenyl)-4-(pyridin-3-yl)thiazol-2-amine], the EC50 is below 1000 nM.
In the case of `c1ccc(-c2nsc(Nc3nc(-c4cccnc4)cs3)n2)cc1` [compound 796, 3-phenyl-N-(4-(pyridin-3-yl)thiazol-2-yl)-1,2,4-thiadiazol-5-amine], the EC50 was above 10000 nM.
